Reference: article PMC9346113, “Therapeutic impact of BET inhibitor BI 894999 treatment: backtranslation from the clinic” (British Journal of Cancer, 2022)

Assays:
Ty-82 BRD4-NUT = experiment: Cell proliferation assay (Alamar readout), Ty-82; assay type: cell-based, human; settings: Homo sapiens, TY82, 96h, read-out: geomean GI50
Description: (§1) The NUT Carcinoma cell line Ty-82 was purchased from JCRB Japan No. 1330 and cultivated in RPMI 1640 supplemented with 10% fetal calf serum (FCS). The NC cell lines 10–15, 14169 and 10326 were in-licensed from Christopher French, Brigham & Womens Hospital, Boston, and were cultivated in DMEM supplemented with glutamax and 10% FCS.
(§2) Viability assays were performed on 96-well flat-bottom microtiter plates and incubated with Alamar Blue solution (Invitrogen, Carlsbad, US-CA). The effects of drug combinations were analysed using the Bliss Independence Model.
Dose response curves (96h cell proliferation assay - Alamar readout) on four NC cell lines with BET inhibitor BI 894999. Yellow bar: readout t zero (before adding of compound). Green bar: DMSO control (max proliferation).
Dose response curves (96h cell proliferation assay - Alamar readout) on four NC cell lines with multiple BET inhibitors.

NC cell lines = experiment: Cell proliferation assays, all four NC lines (summary); assay type: cell-based, human
Description: as §1, §2

BRD4-NUT = tested on: T1, BRD4-NUT; experiment: Immunofluorescence staining of NUT megadomains, Ty-82; assay type: cell-based, human
T1 construct: endogenous in cells; host or cells: Ty-82 NUT carcinoma cells
Description: Cells were seeded on four-well chamber slides (Merck Millipore, #PEZGS0416). After treatment, cells were fixed with 4% PFA (16% Solution, Thermo Fischer #28908 Paraformaldehyde, diluted 1:4 in PBS), permeabilised with 0,1% TX-100 (Sigma #93443, diluted in PBS). After blocking in blocking buffer (10% normal goat serum, Sigma #G9023–10ml, diluted in blocking solution: 2% BSA/PBS, Sigma #A7284–50ml, diluted 1:15 in PBS), the first antibody mAB rabbit anti-NUT 1:1000 (clone C52B1, Cell Signaling #3625) in blocking buffer was added, followed by incubation with the 2nd antibody goat anti-rabbit Alexa*488 1:1000 (Thermo Fisher, #A-11008) in blocking buffer in the dark. Cells were mounted with ProLong Gold Antifade Mountant with DAPI (Thermo Fisher, #P36931) and analysed using a Laser scanning microscope (LSM700). […]
Immunofluorescence staining of NUT megadomains on NC Ty-82 treated with BI with BI 894999 30nM for 1 h, then changed to 10 nM or 5 nM or 2.5 nM or control for 24 h.

BRD3-NUT [1] = tested on: T2, BRD3-NUT; experiment: Immunofluorescence staining of NUT megadomains, 10326; assay type: cell-based, human; settings: 10326 cells; 30 minutes treatment
T2 construct: endogenous in cells; host or cells: 10326 NUT carcinoma cells, in culture (A11) and as subcutaneous xenograft tumours in NOG mice (A26)
Description: Cells were seeded on four-well chamber slides (Merck Millipore, #PEZGS0416). After treatment, cells were fixed with 4% PFA (16% Solution, Thermo Fischer #28908 Paraformaldehyde, diluted 1:4 in PBS), permeabilised with 0,1% TX-100 (Sigma #93443, diluted in PBS). After blocking in blocking buffer (10% normal goat serum, Sigma #G9023–10ml, diluted in blocking solution: 2% BSA/PBS, Sigma #A7284–50ml, diluted 1:15 in PBS), the first antibody mAB rabbit anti-NUT 1:1000 (clone C52B1, Cell Signaling #3625) in blocking buffer was added, followed by incubation with the 2nd antibody goat anti-rabbit Alexa*488 1:1000 (Thermo Fisher, #A-11008) in blocking buffer in the dark. Cells were mounted with ProLong Gold Antifade Mountant with DAPI (Thermo Fisher, #P36931) and analysed using a Laser scanning microscope (LSM700).
[…] Upper row: antibody against NUT, lower row: DAPI.

[2] = Phase I trial MTD and platelet counts (NCT02516553); assay type: in vivo; settings: patients
Description: Schedule B (NCT02516553): daily oral treatment from Day 1 to Day 14 at 2.5 mg/day followed by a week-off in 3-week cycles. Schedule C (NCT02516553): one week-on, one week-off treatment, repeated every two weeks in 4-week cycles with, at each treatment week, a loading dose (6 mg) on Day 1 followed by a maintenance dose (3 mg per day) on the following 6 days.

HEXIM1 = HEXIM1 modulation in mouse blood; assay type: in vivo; settings: mice; 2 mg/kg p.o.
Description: Cmax and PD modulation of Ty-82 tumors treated with BI 894999.

BRD3-NUT [3] = tested on: T2, BRD3-NUT; experiment: IHC of 10326 xenograft tumours, NUT protein; assay type: in vivo, mice; settings: day 21, 2 mg/kg BI 894999
Description: Immunohistochemistry was performed on formalin-fixed, paraffin-embedded tumour tissue using antibodies against human Ki67(Cell Signaling #9027, 1:400 dilution), anti-human mitochondria (Abcam ab92824, 1:1000 dilution) and against endogenous NUT protein (Cell Signaling #3625, 1:50 dilution) used to detect NUT fusion proteins. Digital images of whole tissue sections were acquired using a Leica SCN400 histology scanner (Leica Microsystems). Ki67-positive index was evaluated using Halo Software V. 3.2 (Indica lab). Regions of interest (ROIs) within the tissue sections were first identified using Halo Software via machine learning technology across pathological samples and tissue control, within these ROIs, nuclei were detected and classified as positive or negative based on IHC staining thresholds.
BRD3-NUT 10326 tumor sections after treatment with 2 mg/kg BI 894999, 5 mg/kg or 10 mg/kg CCS1477 and the combination of both. IHC staining for NUT protein.

[4] = GI50, depending on the NC cell line

CNc1nc(-c2nc3ccc(N4CCN(C)CC4)cc3n2Cc2ccccc2)cn2c(C)nnc12 [BI 894999]
GI50 (Ty-82 BRD4-NUT): 2.6 nM | fold more potent than JQ1 and GSK525762 (NC cell lines; [4]): 40–60 fold | more potent than the dual BET/p300 inhibitor NEO2734 (NC cell lines; [4]): 10–20 | GI50 (NC cell lines; Homo sapiens, TY82, Ty-82, 10–15, 14169, 10326, read-out: GI50 (geomean), range over all NC lines): 0.9 to 2.6 nM | time to detachment of BRD-NUT from chromatin (BRD4-NUT; 10–30 nM in Ty-82, 3–10 nM in 10326): ≤ 30 min | concentration at which BRD4-NUT detaches from chromatin / is re-distributed (BRD4-NUT; Ty-82, 30 min treatment): 10 to 30 nM | speckled staining (BRD-NUT bound to chromatin) after washout (BRD4-NUT; washout experiments): quickly restored | concentration at which BRD3-NUT detaches from chromatin (BRD3-NUT [1]): 3 to 10 nM | tolerability as measured by platelet nadir counts ([2]; Schedule C compared to Schedule B at MTD, comparable 6-week cumulative dose (72 vs 70 mg)): better tolerability | thrombocytopenia events ([2]; Schedule C versus Schedule B at equivalent 6-week cumulative dose): less >Grade 3 thrombocytopenia events | MTD, loading dose ([2]; Schedule C, Day 1): 6 mg | MTD, maintenance dose ([2]; Schedule C, following 6 days): 3 mg | HEXIM1 modulation in the blood (HEXIM1): ~ 2 fold | speckled megadomain localisation (NUT staining) (BRD3-NUT [3]): complete loss
